In the NIST ThermoML archive (doi:10.1021/acs.jced.6b00355):
Numbers after ± are expanded uncertainties.

Assays:
[1] = Crystal; DTA
[2] = Molar enthalpy of transition or fusion; conditions: Crystal; DSC

Compound | Normal melting temperature [1] [°C] | Molar enthalpy of transition or fusion [2] [kJ/mol]
CCCCCCCCCCCCCCCC(=O)OCC(COC(=O)CCCCCCCCCCCCCCC)OC(=O)CCCCCCCCCCCCCCC [1,2,3-propanetriyl tri(hexadecanoate)] | 67.6 ± 0.7 | 181 ± 5.2
CCCCCCCCCCCCCCCC [hexadecane] | 18.2 ± 0.7 | –
CCCCCCCCCCCCCCCCCC(=O)OCC(COC(=O)CCCCCCCCCCCCCCCCC)OC(=O)CCCCCCCCCCCCCCCCC [glycerol trioctadecanoate] | 73.5 ± 0.7 | 195 ± 8.6
CCCCCCCCCCCCCC(=O)OCC(COC(=O)CCCCCCCCCCCCC)OC(=O)CCCCCCCCCCCCC [1,2,3-propanetriyl tri(tetradecanoate)] | 58.0 ± 0.7 | 154 ± 6.2
CCCCCCCCCCCC(=O)OCC(COC(=O)CCCCCCCCCCC)OC(=O)CCCCCCCCCCC [1,2,3-propanetriyl tridodecanoate] | 48.8 ± 0.7 | 127 ± 2.5

More lines, now with the values ahead:

Normal melting temperature [1] [°C] | Molar enthalpy of transition or fusion [2] [kJ/mol] | Compound
62.8 ± 0.7 | 55.8 ± 1.5 | CCCCCCCCCCCCCCCC(=O)O [hexadecanoic acid]
70.0 ± 0.7 | 63.3 ± 1.7 | CCCCCCCCCCCCCCCCCC(=O)O [octadecanoic acid]
44.2 ± 0.7 | 37.6 ± 0.89 | CCCCCCCCCCCC(=O)O [dodecanoic acid]
54.5 ± 0.7 | 44.9 ± 1.1 | CCCCCCCCCCCCCC(=O)O [tetradecanoic acid]
